Measurements as given in patent US5854388A, “Angiotensin IV peptides and receptor” (Washington State University Research Foundation, priority 1994, dated 1998).
Entries after “also recorded” stand apart in the source; their conditions may differ. Read-outs that look alike come from different tables or passages of the source. Residues, ends and D or L forms follow the SMILES beside them.

Tests used:
rat kidney = experiment: Renal cortical blood flow (laser doppler) and arterial pressure after infusion into the renal artery; type: in vivo
AT4 receptor [1] = target: T1, AT4 receptor (Oryctolagus cuniculus, UniProt G1SFU4); experiment: 125I-AIV binding and competition, rabbit heart P2 membranes; conditions: competition of 0.5 nM 125I-AIV, 120 min, 37° C.
T1 sequence (G1SFU4 1-1025): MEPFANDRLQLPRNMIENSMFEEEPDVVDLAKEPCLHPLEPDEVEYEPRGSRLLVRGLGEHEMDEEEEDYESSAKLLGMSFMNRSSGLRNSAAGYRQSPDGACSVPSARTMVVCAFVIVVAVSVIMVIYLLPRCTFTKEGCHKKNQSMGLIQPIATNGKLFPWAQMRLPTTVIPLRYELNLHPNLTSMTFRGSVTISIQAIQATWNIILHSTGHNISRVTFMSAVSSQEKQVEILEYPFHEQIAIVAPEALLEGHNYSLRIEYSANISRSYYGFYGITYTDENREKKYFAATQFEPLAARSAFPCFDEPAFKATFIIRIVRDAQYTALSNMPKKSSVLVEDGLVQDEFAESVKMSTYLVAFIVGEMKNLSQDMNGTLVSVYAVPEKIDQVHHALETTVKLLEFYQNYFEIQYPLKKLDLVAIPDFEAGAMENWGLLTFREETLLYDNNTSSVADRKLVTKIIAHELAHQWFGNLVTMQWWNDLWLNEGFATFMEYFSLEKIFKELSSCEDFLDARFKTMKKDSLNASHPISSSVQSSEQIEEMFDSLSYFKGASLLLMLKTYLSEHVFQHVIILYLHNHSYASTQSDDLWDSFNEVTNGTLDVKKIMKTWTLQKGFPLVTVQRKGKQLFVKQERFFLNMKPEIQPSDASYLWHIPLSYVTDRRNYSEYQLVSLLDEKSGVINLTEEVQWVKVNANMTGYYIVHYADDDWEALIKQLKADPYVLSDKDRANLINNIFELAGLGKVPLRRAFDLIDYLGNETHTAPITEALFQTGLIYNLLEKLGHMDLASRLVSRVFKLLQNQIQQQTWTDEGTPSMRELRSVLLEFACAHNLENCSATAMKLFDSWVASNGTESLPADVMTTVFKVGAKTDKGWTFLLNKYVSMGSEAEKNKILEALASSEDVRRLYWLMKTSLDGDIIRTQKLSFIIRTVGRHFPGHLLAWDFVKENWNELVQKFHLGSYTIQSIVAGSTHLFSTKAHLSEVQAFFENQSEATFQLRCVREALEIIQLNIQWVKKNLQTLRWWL

AT4 receptor [2] = target: T2, AT4 receptor (Bos taurus, UniProt F1N1Q8); experiment: 125I-AIV binding and competition, coronary venular endothelial cell (CVEC) membranes; set-up: species or system bovine
T2 sequence (F1N1Q8 1-1022): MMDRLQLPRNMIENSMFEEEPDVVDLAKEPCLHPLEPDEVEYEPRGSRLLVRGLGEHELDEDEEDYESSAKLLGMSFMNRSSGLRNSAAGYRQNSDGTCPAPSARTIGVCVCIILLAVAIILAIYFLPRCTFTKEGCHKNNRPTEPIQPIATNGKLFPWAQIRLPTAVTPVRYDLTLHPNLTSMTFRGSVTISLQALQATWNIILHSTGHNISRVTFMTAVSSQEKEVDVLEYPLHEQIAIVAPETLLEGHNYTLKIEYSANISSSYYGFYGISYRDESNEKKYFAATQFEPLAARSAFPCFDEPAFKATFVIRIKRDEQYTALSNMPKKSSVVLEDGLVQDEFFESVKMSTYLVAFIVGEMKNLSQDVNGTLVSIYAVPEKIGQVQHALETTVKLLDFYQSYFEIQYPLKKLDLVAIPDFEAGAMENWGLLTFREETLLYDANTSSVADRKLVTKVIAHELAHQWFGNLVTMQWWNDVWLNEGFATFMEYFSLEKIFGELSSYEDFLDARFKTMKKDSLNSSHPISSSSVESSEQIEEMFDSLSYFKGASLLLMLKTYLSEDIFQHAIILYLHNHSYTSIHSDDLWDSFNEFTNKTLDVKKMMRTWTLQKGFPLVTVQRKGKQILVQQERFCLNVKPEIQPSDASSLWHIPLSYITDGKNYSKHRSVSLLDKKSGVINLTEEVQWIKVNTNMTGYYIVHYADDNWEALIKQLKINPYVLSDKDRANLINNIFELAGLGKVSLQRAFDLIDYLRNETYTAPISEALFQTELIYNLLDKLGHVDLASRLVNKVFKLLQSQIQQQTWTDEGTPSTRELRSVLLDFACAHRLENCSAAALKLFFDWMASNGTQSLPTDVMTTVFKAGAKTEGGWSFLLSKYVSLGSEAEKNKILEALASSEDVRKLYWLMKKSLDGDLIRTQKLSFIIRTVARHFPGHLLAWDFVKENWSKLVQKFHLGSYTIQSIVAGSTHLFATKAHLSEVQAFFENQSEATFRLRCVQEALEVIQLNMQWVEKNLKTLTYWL

[3] = target: T3, AT1 receptor (AII receptor) (Bos taurus, UniProt P25104); type: binding, bovine; conditions: for Bmax: equilibrium binding; for Ki: competition
T3 construct: from tissue; host or cells: bovine adrenal cortex membranes
T3 sequence (P25104 1-359): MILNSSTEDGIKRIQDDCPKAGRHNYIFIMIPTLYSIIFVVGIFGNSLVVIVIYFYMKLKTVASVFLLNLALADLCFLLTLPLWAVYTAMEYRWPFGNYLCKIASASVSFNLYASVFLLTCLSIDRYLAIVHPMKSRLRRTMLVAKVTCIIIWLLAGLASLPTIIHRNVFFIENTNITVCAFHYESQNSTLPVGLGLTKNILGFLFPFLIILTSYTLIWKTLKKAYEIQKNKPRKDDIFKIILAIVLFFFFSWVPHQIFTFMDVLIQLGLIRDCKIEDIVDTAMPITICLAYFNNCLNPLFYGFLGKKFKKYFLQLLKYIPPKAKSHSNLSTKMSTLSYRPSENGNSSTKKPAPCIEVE

AT4 receptor [4] = target: T2, AT4 receptor; experiment: 125I-AIV binding and competition, bovine adrenal cortical membranes
AT4 receptor [5] = target: T4, AT4 receptor (Cavia porcellus, UniProt H0VNM7); experiment: 125I-AIV binding and competition, guinea pig hippocampus membranes; conditions: competition of 0.6 nM 125I-AIV
T4 sequence (H0VNM7 1-1025): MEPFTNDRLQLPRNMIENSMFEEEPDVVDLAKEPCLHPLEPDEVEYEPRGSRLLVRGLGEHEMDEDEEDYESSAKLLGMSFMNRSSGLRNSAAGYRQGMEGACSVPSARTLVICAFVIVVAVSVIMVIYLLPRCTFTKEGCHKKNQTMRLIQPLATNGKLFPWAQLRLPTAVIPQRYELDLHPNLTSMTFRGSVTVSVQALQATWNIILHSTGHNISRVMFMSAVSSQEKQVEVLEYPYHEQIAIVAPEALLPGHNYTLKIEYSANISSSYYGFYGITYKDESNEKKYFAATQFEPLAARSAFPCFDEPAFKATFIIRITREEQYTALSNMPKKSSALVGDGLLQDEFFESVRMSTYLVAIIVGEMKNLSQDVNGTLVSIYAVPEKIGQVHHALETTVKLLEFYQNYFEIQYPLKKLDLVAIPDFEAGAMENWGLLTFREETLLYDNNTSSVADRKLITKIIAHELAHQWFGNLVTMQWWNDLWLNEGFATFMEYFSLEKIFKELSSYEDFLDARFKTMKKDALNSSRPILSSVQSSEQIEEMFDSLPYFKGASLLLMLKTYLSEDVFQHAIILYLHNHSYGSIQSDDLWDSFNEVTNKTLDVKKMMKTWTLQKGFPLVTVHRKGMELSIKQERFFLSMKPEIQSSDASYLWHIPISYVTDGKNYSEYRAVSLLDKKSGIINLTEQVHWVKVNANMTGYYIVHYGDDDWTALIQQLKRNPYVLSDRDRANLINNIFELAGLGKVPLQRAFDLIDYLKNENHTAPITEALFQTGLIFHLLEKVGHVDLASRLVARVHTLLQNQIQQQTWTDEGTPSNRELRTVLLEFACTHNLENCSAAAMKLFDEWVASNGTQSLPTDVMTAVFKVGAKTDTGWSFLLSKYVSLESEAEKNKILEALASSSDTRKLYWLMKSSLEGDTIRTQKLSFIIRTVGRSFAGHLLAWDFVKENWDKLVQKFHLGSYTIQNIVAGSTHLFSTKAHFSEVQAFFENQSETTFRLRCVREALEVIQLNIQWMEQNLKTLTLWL

[6] = Stability of angiotensin peptides in binding buffer (reverse phase HPLC); type: physicochemical; conditions: 4 h at 37° C.
Description: Binding studies were carried out in a buffer (below) containing an extensive cocktail of inhibitors that was designed to minimize metabolism of both the receptor and the test ligand, i.e., the buffer contained 5 mM EDTA, 0.2% BSA, […] Bestatin, 50 μM Plummer's inhibitor, and 100 μM PMSF.

[7] = in vivo; cited from earlier work
AT4 receptor [8] = target: T2, AT4 receptor; experiment: 125I-AIV binding and competition, solubilized bovine adrenal cortical receptor
[9] = arterial and venous blood in man; cited from earlier work
[10] = Metabolism by rat kidney membranes / homogenates
[11] = competition of 0.5 nM 125I-AIV, read-out: Ki
[12] = read-out: 125I-AIV Binding (Ki), competition
[13] = read-out: 125I-AIV Binding (Ki)

SRVYIHPI [Sar1, Ile8 -AII]
average change in AIV-induced blood flow with preinfusion (rat kidney; 1 nmol/min, 10 min preinfusion): < 3%
effect of preinfusion on blood flow response to another ligand (rat kidney; rat, in vivo): completely blocked the AII effect while having no effect on AIV
Ki (AT4 receptor [1]): > 1000 nM
increase in Ki (decrease in affinity) compared with AIV (AT4 receptor [2]): 200 fold
Ki (AT4 receptor [2]; [11]): 261 ± 89.1 nM
Hill Coeff. [3]: 1.00 ± .03
Bmax ([3]; listed as 125I Sar1, Ile8 -Ang II): 1.03 ± .26 pmol/mg prot.
Bmax ([3]; listed as 125I-Sar1,Ile8 -AII): 1.03±0.26 pmol/mg prot.
Kd ([3]; read-out: Kd (calculated from kinetic constants)): 0.225 nM
Ki (AT4 receptor [4]; [12]): > 1000 nM
Ki (AT4 receptor [5]): > 1000 nM

Asp1 Arg2 Val3 Tyr4 Ile5 His6 Pro7 Phe8His9 Leu10 (DRVYIHPFHL) [AI]
hydrolysis in binding buffer [6]: less than 10%
metabolized during transit through the kidney [7]: 72-76%

CCCCc1nc(Cl)c(CO)n1Cc1ccc(-c2ccccc2-c2nn[nH]n2)cc1 [DuP 753, reference compound]
Ki (AT4 receptor [8]): > 100000 nM
Ki (AT4 receptor [2]; unit inferred): > 100000 nM
Ki [3]: 31 nM
Ki (AT4 receptor [4]; [13]): > 100000 nM

CGP 42112A
Ki (AT4 receptor [1]): > 1000 nM
Ki (AT4 receptor [2]; unit inferred, read-out: Ki): > 100000 nM
Ki [3]: > 100000 nM
Ki (AT4 receptor [4]; [12]): > 100000 nM
Ki (AT4 receptor [5]): > 100000 nM

CC[C@H](C)[C@H](NC(=O)[C@@H](N)Cc1ccc(O)cc1)C(=O)N[C@@H](Cc1cnc[nH]1)C(=O)N1CCC[C@H]1C(=O)N[C@@H](Cc1ccccc1)C(=O)O [AII(4-8), YIHPF] (H-YIHPF-OH)
Ki (AT4 receptor [8]): > 1000 nM
half-lives [9]: 2.4 min
Ki (AT4 receptor [2]; competition of 0.5 nM 125I-AIV): 253 ± 89.1 nM
Ki (AT4 receptor [4]; [13]): > 1000 nM

CC[C@H](C)[C@H](NC(=O)[C@H](Cc1ccc(O)cc1)NC(=O)[C@@H](NC(=O)[C@@H](N)CCCNC(=N)N)C(C)C)C(=O)N[C@@H](Cc1c[nH]cn1)C(=O)N1CCC[C@H]1C(=O)N[C@@H](Cc1ccccc1)C(=O)O [AIII, Arg1 Val2 Tyr3 Ile4 His5 Pro6 Phe7, reference compound]
fold less active than AIV ligand (AT4 receptor [8]): approximately 29 fold
times less effective than AIV in competing binding (AT4 receptor [8]): approximately 100 times
hydrolysis in binding buffer [6]: less than 10%
half-lives [9]: 2.0 min
Ki (AT4 receptor [2]; [11]): 23.3 ± 3.4 nM
fold less active than AIV ligand (AT4 receptor [4]; density-gradient-purified heat-treated membranes): about 52 fold
Ki (AT4 receptor [4]; density-gradient-purified heat-treated membranes, read-out: apparent affinity (Ki)): 29.3 nM
Ki (AT4 receptor [4]; [12]): > 14.5 nM
metabolized during transit through the kidney [7]: 89%

^+ H3 N-Val(CH2 NH)Tyr-Val(CH2 NH)-His-Pro-Phe-COO^- (H-VYVHPF-OH; also: reduced CH2-NH bonds: Val1-Tyr2, Val3-His4) [Val1 Val3 AIV]
agonist / antagonist activity (in words) (rat kidney; rat, in vivo): potent antagonist of AT4 receptor activity
effect of preinfusion on blood flow response to another ligand (rat kidney; rat, in vivo): completely blocks Lys^1 AIV-induced increases in blood flow
effect on arterial blood pressure (in words) (rat kidney; rat, in vivo): did not alter blood pressure or renal blood flow
effect on renal blood flow (in words) (rat kidney; rat, in vivo): did not alter blood pressure or renal blood flow
Ki (AT4 receptor [8]; read-out: Ki): 1.29 nM
binding affinity for the AT4 receptor (in words) (AT4 receptor [4]): affinity equal to or better than VYIHPF; also recorded: equal or better affinity than AIV
stability on exposure to rat kidney (in words) [10]: totally resistant to enzymatic degradation
stability on exposure to rat kidney (in words) ([10]; listed as divalinal AIV): enhanced metabolic stability
remaining intact ([10]; rat kidney membranes, 4 hr, room temperature): 100%
